Nine compounds from ChEMBL document CHEMBL5325456, “5-(4-Hydroxyphenyl)-3H-1,2-dithiole-3-thione derivatives of brefeldin A: Design, synthesis and cytotoxicity in MDA-MB-231 human breast cancer cells” (Bioorg Med Chem, 2023) can be followed below.

Data set [1] is described as follows: Selectivity index, ratio of IC50 for antiproliferative activity against human L02 cells to IC50 for antiproliferative activity against human MDA-MB-231 cells. It counts as toxicity, cell-based. Particulars: L02 cells and MDA-MB-231 cells, read-out: Ratio IC50.
A further data set has as its system MDA-MB-231. In words: Antiproliferative activity against human MDA-MB-231 cells assessed as reduction in cell viability incubated for 48 hrs by CCk-8 assay. It counts as functional, cell-based. The following applies: MDA-MB-231, 48 h.
For the next data set, the system named is HepG2. The data set can be described thus: Antiproliferative activity against human HepG2 cells assessed as reduction in cell viability incubated for 48 hrs by CCk-8 assay. It counts as functional, cell-based. The following applies: HepG2, 48 h.
The test system of the next data set is A549. The data set can be described thus: Antiproliferative activity against human A549 cells assessed as reduction in cell viability incubated for 48 hrs by CCk-8 assay. Type of data set: functional, cell-based. The following applies: A549, 48 h.
The next data set has as its system A-375. The data set can be described thus: Antiproliferative activity against human A-375 cells assessed as reduction in cell viability incubated for 48 hrs by CCk-8 assay. It counts as functional, cell-based. The following applies: A-375, 48 h.
In a further data set the test system is DU-145. In words: Antiproliferative activity against human DU-145 cells assessed as reduction in cell viability incubated for 48 hrs by CCk-8 assay. It counts as functional, cell-based. The following applies: DU-145, 48 h.
Another data set relates to HeLa. The data set can be described thus: Antiproliferative activity against human HeLa cells assessed as reduction in cell viability incubated for 48 hrs by CCk-8 assay. It counts as functional, cell-based.
Data set [2] in a line: Antiproliferative activity against human L02 cells assessed as reduction in cell viability incubated for 48 hrs by CCk-8 assay. It counts as toxicity, cell-based.

pIC50: −log10 of the molar value. Some results are limits rather than exact numbers.

On to `C[C@H]1CCC/C=C/[C@@H]2C[C@H](O)C[C@H]2[C@H](OC(=O)CCC(=O)OCCOc2ccc(-c3cc(=S)ss3)cc2)/C=C/C(=O)O1`, for which the selectivity ratio in data set [1] came to 6.97. Moreover, the negative logarithm of the IC50 (pIC50) in the data set with MDA-MB-231 was 5.92; with HepG2, 5.33; in the data set with A549, 5.56; in the data set with A-375, 5.77; with DU-145 it was 5.73; in the data set with HeLa it was 5.46. Moreover, in data set [2], the IC50 at 48 h turned out to be 8300 nM.
As to `C[C@H]1CCC/C=C/[C@@H]2C[C@H](O)C[C@H]2[C@H](OC(=O)CCCC(=O)OCCCCOc2ccc(-c3cc(=S)ss3)cc2)/C=C/C(=O)O1`, the selectivity ratio in data set [1] is 2.69. For the same compound, the pIC50 was 6.80 in the data set with MDA-MB-231; 6.36 in the data set on HepG2; 5.98 in the data set on A549; 6.03 in the data set on A-375; 6.37 in the data set with DU-145; 6.64 in the data set on HeLa. The 50% inhibitory concentration (IC50) at 48 h in data set [2] came out at 430 nM.
As for `C[C@H]1CCC/C=C/[C@@H]2C[C@H](O)C[C@H]2[C@H](OC(=O)CCC(=O)OCCCCOc2ccc(-c3cc(=S)ss3)cc2)/C=C/C(=O)O1`, the selectivity ratio in data set [1] stood at 3.28. Further, the pIC50 is 6.30 in the data set with MDA-MB-231; 6.14 in the data set on HepG2; 5.84 in the data set on A549; 6.08 in the data set on A-375; 6.06 in the data set on DU-145; 6.07 in the data set on HeLa. For the same compound, the 50% inhibitory concentration (IC50) at 48 h in data set [2] is 1640 nM.
Consider `C[C@H]1CCC/C=C/[C@@H]2C[C@H](O)C[C@H]2[C@H](OC(=O)c2ccccc2C(=O)Oc2ccc(-c3cc(=S)ss3)cc2)/C=C/C(=O)O1`, for which the selectivity ratio in data set [1] turned out to be 2.64. Besides, the pIC50 was 5.87 in the data set with MDA-MB-231; 5.15 in the data set with HepG2; 6.48 in the data set with A549; 5.97 with A-375; less than 4.40 in the data set with DU-145; 6.52 in the data set on HeLa. In data set [2], the IC50 at 48 h is 3550 nM.
In the case of `C[C@H]1CCC/C=C/[C@@H]2C[C@H](O)C[C@H]2[C@H](O)/C=C/C(=O)O1` [BREFELDIN A], the selectivity ratio in data set [1] was determined as 1.74. Also, the pIC50 with MDA-MB-231 was 7.27; in the data set with HepG2 it was 6.92; in the data set on A549 it was 7.25; in the data set on A-375, 7.41; with DU-145, 6.80; in the data set on HeLa it was 7.36. Moreover, the IC50 at 48 h in data set [2] came out at 94 nM.
For the compound `C[C@H]1CCC/C=C/[C@@H]2C[C@H](O)C[C@H]2[C@H](OC(=O)CCCC(=O)OCCCCCCOc2ccc(-c3cc(=S)ss3)cc2)/C=C/C(=O)O1`, in data set [1], the selectivity ratio is 6.35. For the same compound, the pIC50 in the data set with MDA-MB-231 is 6.29; with HepG2 it was 5.76; with A549, 6.17; with A-375, 6.28; in the data set with DU-145 it was 5.95; in the data set on HeLa, 6.43. Further, the IC50 at 48 h in data set [2] stood at 3240 nM.
Turning to `C[C@H]1CCC/C=C/[C@@H]2C[C@H](O)C[C@H]2[C@H](OC(=O)CCCC(=O)Oc2ccc(-c3cc(=S)ss3)cc2)/C=C/C(=O)O1`, in data set [1], the selectivity ratio was 2.57. Moreover, the negative logarithm of the IC50 (pIC50) is 5.02 with MDA-MB-231; 4.75 with HepG2; 4.74 with A549; 4.52 in the data set on A-375; 4.71 in the data set with DU-145; 5.28 in the data set with HeLa. Besides, the 50% inhibitory concentration (IC50) at 48 h in data set [2] came to 24800 nM.
In the case of `C[C@H]1CCC/C=C/[C@@H]2C[C@H](O)C[C@H]2[C@H](OC(=O)CCC(=O)Oc2ccc(-c3cc(=S)ss3)cc2)/C=C/C(=O)O1`, the selectivity ratio in data set [1] amounted to 6.06. In addition, the negative logarithm of the IC50 (pIC50) in the data set with MDA-MB-231 is 5.87; with HepG2, 5.13; with A549, 5.50; with A-375, 5.44; in the data set on DU-145, 4.79; in the data set with HeLa, 5.63. In addition, the half-inhibitory concentration (IC50) at 48 h in data set [2] is 8180 nM.
As to `C[C@H]1CCC/C=C/[C@@H]2C[C@H](O)C[C@H]2[C@H](OC(=O)CCC(=O)OCCCCCCOc2ccc(-c3cc(=S)ss3)cc2)/C=C/C(=O)O1`, in data set [1], the selectivity ratio was determined as 2.31. Besides, the negative logarithm of the IC50 (pIC50) in the data set on MDA-MB-231 is 5.85; with HepG2 it was 5.47; in the data set on A549 it was 5.82; in the data set on A-375 it was 6.19; with DU-145, 5.44; with HeLa, 6.11. Further, the IC50 at 48 h in data set [2] is 3260 nM.

In general, pIC50 refers to −log10 of the IC50, conventionally taken in molar units. One may read the IC50 as the concentration needed to halve the response being measured.
